# US20260250318A1, “COMPOSITIONS AND METHODS FOR CROSSING THE BLOOD BRAIN BARRIER” (VOYAGER THERAPEUTICS, INC., priority 2022, published 2026)
# Experiments:
# brain = assay: Matured TTM-001 and TTM-002 variants, NGS enrichment in mouse brain; type: in vivo, mice; conditions: relative to AAV9 control
# [1] = tested on: brains, heart, liver, muscle, and DRG of the NHPs; assay: Maturation of TTM-001 and TTM-002 capsids, NGS enrichment in NHP tissues; type: in vivo; conditions: relative to AAV9 control
# Summary of the method: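 Variants carry mutations within and flanking the loop IV peptide insert: positions 450–466 were triplet-randomized, while positions 449–466 received low-frequency point mutations. The combined pool went into two NHPs, and each peptide was scored by NGS enrichment ratio against AAV9.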
# [2] = NGS fold-enrichment, mouse brain
# [3] = NGS fold-enrichment of RNA, NHP brain
# [4] = NGS fold-enrichment, NHP liver DNA
# [5] = NGS fold-enrichment, NHP liver RNA
# [6] = NGS fold-enrichment, NHP muscle
# [7] = NGS fold-enrichment, brain of mice
# [8] = NGS fold-enrichment, DRG of NHPs
# [9] = NGS fold-enrichment, RNA, brain of NHPs
# [10] = NGS fold-enrichment, heart of NHPs
# [11] = NGS fold-enrichment, liver DNA of NHPs
# [12] = NGS fold-enrichment, liver RNA of NHPs
# [13] = NGS fold-enrichment, muscle of NHPs
# [14] = NGS fold-enrichment of matured AAV capsid variants, NHP brain, RNA
Sequence,"Fold Enrichment relative to AAV9, Brain (Mouse) (brain; [7]) [fold]","Fold Enrichment relative to AAV9, DRG (NHP) [1, 8] [fold]","Fold Enrichment relative to AAV9, Brain (NHP) [1, 9] [fold]","Fold Enrichment relative to AAV9, Heart (NHP) [1, 10] [fold]","Fold Enrichment relative to AAV9, Liver DNA (NHP) [1, 11] [fold]","Fold Enrichment relative to AAV9, Liver RNA (NHP) [1, 12] [fold]","Fold Enrichment relative to AAV9, Muscle (NHP) [1, 13] [fold]","Fold Enrichment relative to AAV9, Brain (Mouse) (brain; mouse brain) [fold]","Fold Enrichment relative to AAV9, Brain (NHP) [1, 14] [fold]","Fold Enrichment relative to AAV9, DRG (NHP) ([1]; NHP DRG) [fold]","Fold Enrichment relative to AAV9, Heart (NHP) ([1]; NHP heart) [fold]","Fold Enrichment relative to AAV9, Liver DNA (NHP) ([1]; NHP liver, DNA) [fold]","Fold Enrichment relative to AAV9, Liver RNA (NHP) ([1]; NHP liver, RNA) [fold]","Fold Enrichment relative to AAV9, Muscle (NHP) ([1]; NHP muscle) [fold]",other results
KTVDGHDSPHKSGQKQQT,,,,,,,,,,,,,,,"Fold Enrichment relative to AAV9, Brain (Mouse) (brain; [2]): 7.200 fold; Fold Enrichment relative to AAV9, Brain (NHP) [1, 3]: 78.802 fold; Fold Enrichment relative to AAV9, DRG (NHP) ([1]; NGS fold-enrichment, NHP DRG): 0.000 fold; Fold Enrichment relative to AAV9, Heart (NHP) ([1]; NGS fold-enrichment, NHP heart): 0.069 fold; Fold Enrichment relative to AAV9, Liver DNA (NHP) [1, 4]: 0.342 fold; Fold Enrichment relative to AAV9, Liver RNA (NHP) [1, 5]: 0.157 fold; Fold Enrichment relative to AAV9, Muscle (NHP) [1, 6]: 0.000 fold"
KTINGSGSPHSKGHWQQT,65.252,0.000,81.434,0.000,1.011,0.000,0.000,,,,,,,,"Fold Enrichment relative to AAV9, Brain (Mouse) (brain; [2]): 65.252 fold; Fold Enrichment relative to AAV9, Brain (NHP) [1, 3]: 81.434 fold; Fold Enrichment relative to AAV9, DRG (NHP) ([1]; NGS fold-enrichment, NHP DRG): 0.000 fold; Fold Enrichment relative to AAV9, Heart (NHP) ([1]; NGS fold-enrichment, NHP heart): 0.000 fold; Fold Enrichment relative to AAV9, Liver DNA (NHP) [1, 4]: 1.011 fold; Fold Enrichment relative to AAV9, Liver RNA (NHP) [1, 5]: 0.000 fold; Fold Enrichment relative to AAV9, Muscle (NHP) [1, 6]: 0.000 fold"
KTSNASGSPHSKAQNQLT,150.401,0.000,73.501,0.000,0.313,0.000,0.297,,,,,,,,
KTEDLSGSPHSKAQNQQT,,,,,,,,70.198,54.156,0.000,0.000,0.132,1.193,0.000,
KQGEGSGSPHSKAQNQQT,,,,,,,,135.300,58.752,0.000,0.000,0.151,0.000,0.000,
KTINGGGSPHSKSQNQHT,100.748,0.000,67.773,0.057,0.220,0.000,0.000,,,,,,,,
KTEPTSGSPHSKAQNQQT,,,,,,,,143.397,56.134,0.000,0.000,0.527,0.061,0.000,
KTINGSGSPHSKAQMPNT,,,,,,,,66.040,52.408,0.084,0.036,0.359,0.057,0.025,
ETIKGSGSPHSKAQNQQT,67.201,0.000,64.609,0.000,0.024,0.000,0.144,,,,,,,,
KTREISGSPHSKAQNQQT,,,,,,,,51.696,59.027,0.000,0.042,0.269,0.356,0.224,
KTINGSGSPHSKAQSKVT,,,,,,,,76.115,56.373,0.000,0.050,0.390,1.021,0.014,
KTVNGNGSPHSKAQNKQT,69.455,0.000,81.481,0.000,0.122,0.000,0.000,,,,,,,,"Fold Enrichment relative to AAV9, Brain (Mouse) (brain; [2]): 69.455 fold; Fold Enrichment relative to AAV9, Brain (NHP) [1, 3]: 81.481 fold; Fold Enrichment relative to AAV9, DRG (NHP) ([1]; NGS fold-enrichment, NHP DRG): 0.000 fold; Fold Enrichment relative to AAV9, Heart (NHP) ([1]; NGS fold-enrichment, NHP heart): 0.000 fold; Fold Enrichment relative to AAV9, Liver DNA (NHP) [1, 4]: 0.122 fold; Fold Enrichment relative to AAV9, Liver RNA (NHP) [1, 5]: 0.000 fold; Fold Enrichment relative to AAV9, Muscle (NHP) [1, 6]: 0.000 fold"
KTESTSGSPHSKAQNQQT,95.861,0.000,66.649,0.009,0.176,1.688,0.000,,,,,,,,
KTINGSGSPHSKAIGKQT,,,,,,,,110.132,56.158,0.000,0.000,0.088,0.887,0.000,
KSINGHDSPHKSGQIQHT,,,,,,,,,,,,,,,"Fold Enrichment relative to AAV9, Brain (Mouse) (brain; [2]): 13.872 fold; Fold Enrichment relative to AAV9, Brain (NHP) [1, 3]: 87.598 fold; Fold Enrichment relative to AAV9, DRG (NHP) ([1]; NGS fold-enrichment, NHP DRG): 0.000 fold; Fold Enrichment relative to AAV9, Heart (NHP) ([1]; NGS fold-enrichment, NHP heart): 0.480 fold; Fold Enrichment relative to AAV9, Liver DNA (NHP) [1, 4]: 0.347 fold; Fold Enrichment relative to AAV9, Liver RNA (NHP) [1, 5]: 0.714 fold; Fold Enrichment relative to AAV9, Muscle (NHP) [1, 6]: 0.000 fold"
KTINGNGSPHSKSQNQHT,,,,,,,,56.614,51.379,0.000,0.054,0.082,0.000,0.000,
KTIPIDGSPHSKAQNQQT,76.826,0.000,64.421,0.047,0.936,0.234,0.000,,,,,,,,
KTSNGYDSPHKSGQKQQT,,,,,,,,,,,,,,,"Fold Enrichment relative to AAV9, Brain (Mouse) (brain; [2]): 8.813 fold; Fold Enrichment relative to AAV9, Brain (NHP) [1, 3]: 77.001 fold; Fold Enrichment relative to AAV9, DRG (NHP) ([1]; NGS fold-enrichment, NHP DRG): 0.032 fold; Fold Enrichment relative to AAV9, Heart (NHP) ([1]; NGS fold-enrichment, NHP heart): 0.286 fold; Fold Enrichment relative to AAV9, Liver DNA (NHP) [1, 4]: 0.016 fold; Fold Enrichment relative to AAV9, Liver RNA (NHP) [1, 5]: 0.000 fold; Fold Enrichment relative to AAV9, Muscle (NHP) [1, 6]: 0.000 fold"
KAENGSGSPHSKAQNQQT,,,,,,,,120.256,52.487,0.000,0.157,0.242,0.000,0.029,
KTINGSGSPHSKAQAIKT,73.560,0.255,74.261,0.000,0.132,0.186,0.000,,,,,,,,
KTINGSGSPHSKTQNHQN,,,,,,,,64.846,55.551,0.000,0.048,0.099,0.000,0.000,
KTINGGGSPHSKAQDKQT,50.764,0.000,59.322,0.000,0.093,0.000,0.000,,,,,,,,
